Here are results for 5 compounds from ChEMBL document CHEMBL1201862, “PubChem BioAssay data set” (2004).

The test system of assay [1] is Streptococcus sp. 'group A'. Put plainly: growth inhibition of control SK(-) GAS strain, dose response, counter-screen for streptokinase expression inhibitor project, luminescence, kanamycin, BacTiterGlo, confirmation (AID 1900). Type of assay: functional, organism-based.
For the next assay, the target named is T1, Streptokinase A (Streptococcus pyogenes serotype M1, UniProt P10520).
T1 sequence (P10520 whole entry): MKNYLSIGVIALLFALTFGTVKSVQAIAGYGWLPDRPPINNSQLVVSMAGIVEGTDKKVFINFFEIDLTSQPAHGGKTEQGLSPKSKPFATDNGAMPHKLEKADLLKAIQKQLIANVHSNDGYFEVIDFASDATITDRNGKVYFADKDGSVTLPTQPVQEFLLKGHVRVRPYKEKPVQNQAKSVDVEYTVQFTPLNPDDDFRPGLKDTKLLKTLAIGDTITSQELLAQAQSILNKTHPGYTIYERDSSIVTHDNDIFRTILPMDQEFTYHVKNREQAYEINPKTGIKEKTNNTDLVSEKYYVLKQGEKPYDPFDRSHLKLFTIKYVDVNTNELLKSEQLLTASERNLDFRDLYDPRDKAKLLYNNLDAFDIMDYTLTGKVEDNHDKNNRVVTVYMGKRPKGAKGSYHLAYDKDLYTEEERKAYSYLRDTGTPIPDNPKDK
Put plainly: S. pyogenes streptokinase expression inhibitors, potency, dose response, plasminogen activation absorbance, OD405 (AID 1914).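 Further: secreted streptokinase activity via plasminogen activation per viability signal from cell pellet.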 The format is functional, Streptococcus pyogenes M1 GAS.

The next assay concerns Streptococcus. Put plainly: Group A Streptococcus viability loss, dose response, counter-screen for streptokinase expression inhibitor project, luminescence, BacTiterGlo (AID 1915).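 Further: potency for reduction of bacterial viability or growth.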 The format is functional, organism-based.
The target of assay [2] is T2, Replicative DNA helicase DnaB (Mycobacterium tuberculosis, UniProt P9WMR3).
T2 sequence (P9WMR3 whole entry): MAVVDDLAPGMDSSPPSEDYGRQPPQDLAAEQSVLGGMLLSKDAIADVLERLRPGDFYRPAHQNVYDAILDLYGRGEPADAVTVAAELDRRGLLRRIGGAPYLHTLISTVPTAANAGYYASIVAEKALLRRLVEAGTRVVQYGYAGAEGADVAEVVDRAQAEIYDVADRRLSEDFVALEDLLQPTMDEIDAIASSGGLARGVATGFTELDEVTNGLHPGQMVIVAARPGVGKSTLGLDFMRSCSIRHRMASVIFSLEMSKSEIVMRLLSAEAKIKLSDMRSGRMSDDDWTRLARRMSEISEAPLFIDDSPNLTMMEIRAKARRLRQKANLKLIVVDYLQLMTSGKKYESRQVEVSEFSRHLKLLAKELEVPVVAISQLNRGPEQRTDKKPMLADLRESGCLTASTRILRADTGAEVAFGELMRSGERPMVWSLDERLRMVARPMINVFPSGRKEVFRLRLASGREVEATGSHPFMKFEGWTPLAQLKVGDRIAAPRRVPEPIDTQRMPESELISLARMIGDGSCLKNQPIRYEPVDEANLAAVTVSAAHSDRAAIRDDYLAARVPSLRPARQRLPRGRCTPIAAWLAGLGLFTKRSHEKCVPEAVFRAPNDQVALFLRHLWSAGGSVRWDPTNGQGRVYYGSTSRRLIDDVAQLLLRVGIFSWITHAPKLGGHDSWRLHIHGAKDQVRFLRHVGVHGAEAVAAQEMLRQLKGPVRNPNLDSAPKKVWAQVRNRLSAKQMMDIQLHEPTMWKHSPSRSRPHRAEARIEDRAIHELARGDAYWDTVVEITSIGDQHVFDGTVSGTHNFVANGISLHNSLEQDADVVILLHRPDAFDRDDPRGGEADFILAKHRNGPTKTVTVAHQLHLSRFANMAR
Put plainly: DnaB intein splicing inhibitors, dose response, biochemical, cell-free fluorescence (AID 449749). The format is functional.

A further assay addresses T3, Protein RecA (Mycobacterium tuberculosis, UniProt P9WHJ3).
T3 sequence (P9WHJ3 whole entry): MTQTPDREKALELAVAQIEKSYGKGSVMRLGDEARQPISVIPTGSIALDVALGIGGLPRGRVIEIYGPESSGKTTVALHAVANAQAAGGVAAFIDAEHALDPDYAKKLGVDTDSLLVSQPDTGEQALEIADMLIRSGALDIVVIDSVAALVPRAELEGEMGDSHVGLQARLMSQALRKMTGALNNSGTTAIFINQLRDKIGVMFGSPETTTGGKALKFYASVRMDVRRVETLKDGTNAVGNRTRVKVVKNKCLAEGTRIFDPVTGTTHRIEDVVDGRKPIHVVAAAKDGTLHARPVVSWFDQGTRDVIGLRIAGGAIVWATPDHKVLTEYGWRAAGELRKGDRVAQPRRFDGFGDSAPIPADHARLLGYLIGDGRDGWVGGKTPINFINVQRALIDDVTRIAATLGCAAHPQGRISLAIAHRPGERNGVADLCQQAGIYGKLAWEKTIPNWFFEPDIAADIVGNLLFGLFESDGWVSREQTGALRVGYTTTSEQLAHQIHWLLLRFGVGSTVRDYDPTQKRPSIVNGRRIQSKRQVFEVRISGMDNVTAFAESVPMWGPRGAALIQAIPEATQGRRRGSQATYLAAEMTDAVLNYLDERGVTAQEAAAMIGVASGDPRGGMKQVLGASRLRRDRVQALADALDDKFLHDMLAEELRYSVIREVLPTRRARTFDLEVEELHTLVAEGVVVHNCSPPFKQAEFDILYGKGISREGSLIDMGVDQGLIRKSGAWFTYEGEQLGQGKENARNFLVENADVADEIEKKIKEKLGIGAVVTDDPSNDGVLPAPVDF
Put plainly: Fluorescence Cell-Free Homogeneous Dose Retest to Identify Inhibitors of RecA-Intein Splicing Activity. [Related pubchem assays (depositor defined):AID2097, AID2223, AID489010, AID492950]. Type of assay: functional.

Assay [3] has as its target T4, Tyrosyl-DNA phosphodiesterase 2 (Homo sapiens, UniProt O95551).
T4 sequence (O95551 whole entry): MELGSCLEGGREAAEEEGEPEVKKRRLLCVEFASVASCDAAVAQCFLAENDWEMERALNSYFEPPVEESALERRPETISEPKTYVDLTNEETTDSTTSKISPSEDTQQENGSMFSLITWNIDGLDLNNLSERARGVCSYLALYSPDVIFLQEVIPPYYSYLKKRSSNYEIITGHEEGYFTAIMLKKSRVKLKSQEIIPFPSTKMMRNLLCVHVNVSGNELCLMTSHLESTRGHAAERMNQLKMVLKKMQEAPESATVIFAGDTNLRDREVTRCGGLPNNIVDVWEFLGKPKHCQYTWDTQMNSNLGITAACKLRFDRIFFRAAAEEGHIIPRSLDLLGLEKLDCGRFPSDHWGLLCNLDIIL
The assay is described as follows: human TDP2 enzyme inhibitors, dose response, biochemical, epi absorbance, IC50 (AID 743297).

Activity calls are given as the source filed them. For most assays here, no stated cut-off is given here; in the data, actives have a measured EC50 and inactives only a lower limit.

In the case of `CCc1nnc(NS(=O)(=O)c2ccc(NC(=S)NC(=O)/C=C/c3ccc(C(C)C)cc3)cc2)s1`, the EC50 was 2.39 µM (active) in assay [1], 4.44 µM (active) at Streptokinase A, 7.83 µM (active) with Streptococcus and 33.4 µM (active) at Protein RecA. The AC50 in assay [2] was 3150 nM (active).

Regarding `CC1CC(=O)c2c(cc3c(-c4c(O)cc(O)c5c(O)c6c(cc45)OC(C)CC6=O)c(O)cc(O)c3c2O)O1` (configuration not stated) [CEPHALOCHROMIN], the 50% effective concentration (EC50) was 0.348 µM (active) in assay [1], > 150 µM (not active) on Streptokinase A, 0.991 µM (active) in the assay on Streptococcus and 1.57 µM (active) on Protein RecA. Moreover, the AC50 in assay [2] was 1780 nM (active).

For `COc1ccc(S(=O)(=O)Nc2cc(SCC(=O)O)c(O)c3ccccc23)cc1`, the concentration at half-maximal activity (AC50) in assay [2] is 885 nM (active). In addition, the EC50 on Protein RecA was 0.234 µM (active). Moreover, the IC50 in assay [3] was 75.9 µM (inactive).

On to `COC(=O)C(O)(c1c(C)[nH]n(-c2ccccc2)c1=O)C(F)(F)F` (configuration not stated), for which the half-maximal activity concentration (AC50) in assay [2] was < 18 nM (active). The EC50 at Protein RecA is 3.74 µM (active). The IC50 in assay [3] was 12.7 µM (inactive).

Turning to `O=C1C(Nc2ccc(O)cc2)=C/C(=N/S(=O)(=O)c2cccs2)c2ccccc21`, the concentration giving a half-maximal response (EC50) in assay [1] is 1.68 µM (active); on Streptokinase A, > 150 µM (not active); in the assay on Streptococcus, 7.1 µM (active); on Protein RecA it was 0.123 µM (active). Further, the AC50 in assay [2] was 128 nM (active). Moreover, the IC50 in assay [3] was 0.698 µM (active).
